Data on 18 compounds can be found in ChEMBL document CHEMBL5614412, “Regulation of protein phosphorylation by PTPN2 and its small-molecule inhibitors/degraders as a potential disease treatment strategy” (Eur J Med Chem, 2024).

Starred links: 1 amine or outer side, 2 acyl side, 3 side chain; linkers in the order of their positions; H or OH if unused. Non-standard residues stand in square brackets, D forms with d. Residues, ends and D or L forms follow the SMILES beside them. ξ: configuration not given here. *: point of attachment. NHCH2(1,3-C6H4)CH2CO = O=C(Cc1cccc(CN[*:1])c1)[*:2]; ξF2Pmp = NC(Cc1ccc(C(F)(F)P(=O)(O)O)cc1)C(=O)O; Benzoyl(3-Br,4-Me) = Cc1ccc(C(=O)*)cc1Br; ξPro(4R-OH) = O=C(O)C1C[C@@H](O)CN1; X2 = Cc1ncsc1-c1ccc([C@H](C)N*)cc1; Tle = CC(C)(C)[C@H](N)C(=O)O; X1 = COc1ccc(CC(=O)*)cc1O

Assay [1] concerns the target Protein cereblon/Tyrosine-protein phosphatase non-receptor type 2 (Homo sapiens, UniProt P17706+Q96SW2). The assay is described as follows: PROTAC activity at PTPN2/CRBN in HEK293 cells assessed as protein degradation measured for 48 hrs by Western blot analysis. In kind it is cell-based. (A western blot detects proteins with antibodies after separation by electrophoresis.)

The target of assay [2] is Protein cereblon/Tyrosine-protein phosphatase non-receptor type 1 (Homo sapiens, UniProt P18031+Q96SW2). Put plainly: PROTAC activity at PTP1B/CRBN in HEK293 cells assessed as protein degradation measured for 48 hrs by Western blot analysis. In kind it is cell-based.
The species entered for a further assay is Homo sapiens. Put plainly: Selectivity index, ratio of DC50 for PROTAC activity at PTP1B/CRBN in HEK293 cells to DC50 for PROTAC activity at PTPN2/CRBN in HEK293 cells. In kind it is cell-based.
The test system of a further assay is B16. The assay is described as follows: Antiproliferative activity against mouse B16 cells. Format: functional, cell-based.
The target of assay [3] is T1, Tyrosine-protein phosphatase non-receptor type 2 (Homo sapiens, UniProt P17706).
T1 sequence (P17706 whole entry): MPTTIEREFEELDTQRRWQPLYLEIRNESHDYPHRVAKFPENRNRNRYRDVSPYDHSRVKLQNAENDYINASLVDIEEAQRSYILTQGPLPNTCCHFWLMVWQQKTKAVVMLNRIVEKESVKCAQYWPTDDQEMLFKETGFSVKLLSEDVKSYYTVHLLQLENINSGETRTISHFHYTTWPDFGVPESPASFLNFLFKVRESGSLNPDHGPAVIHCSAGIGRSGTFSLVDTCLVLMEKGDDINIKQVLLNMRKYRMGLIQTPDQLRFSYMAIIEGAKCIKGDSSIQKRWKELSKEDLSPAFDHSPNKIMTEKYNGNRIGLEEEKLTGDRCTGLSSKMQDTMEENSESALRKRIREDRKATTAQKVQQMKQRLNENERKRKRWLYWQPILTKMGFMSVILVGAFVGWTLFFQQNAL
Put plainly: Inhibition of PTPN2 (unknown origin).

Assay [4] concerns the target T2, Tyrosine-protein phosphatase non-receptor type 1 (Homo sapiens, UniProt P18031).
T2 sequence (P18031 whole entry): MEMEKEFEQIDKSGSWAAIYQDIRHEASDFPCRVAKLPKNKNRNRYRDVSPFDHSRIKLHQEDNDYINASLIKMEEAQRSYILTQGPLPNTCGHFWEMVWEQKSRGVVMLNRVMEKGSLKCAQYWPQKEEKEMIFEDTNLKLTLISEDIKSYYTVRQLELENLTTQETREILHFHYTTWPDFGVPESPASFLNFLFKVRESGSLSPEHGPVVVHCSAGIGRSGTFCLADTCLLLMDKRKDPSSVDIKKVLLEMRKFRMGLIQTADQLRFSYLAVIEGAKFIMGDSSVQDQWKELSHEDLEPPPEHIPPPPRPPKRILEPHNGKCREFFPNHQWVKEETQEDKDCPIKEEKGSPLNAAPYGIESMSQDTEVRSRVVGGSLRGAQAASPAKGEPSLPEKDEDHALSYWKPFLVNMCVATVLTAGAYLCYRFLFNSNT
The assay is described as follows: Inhibition of PTP1B (unknown origin).

Assay [5] is described as follows: Inhibition of PTP1B/PTPN2 (unknown origin) in mouse B16 cells. Format: cell-based, Homo sapiens.
The target of assay [6] is T1, Tyrosine-protein phosphatase non-receptor type 2.
Description: Inhibition of human PTPN2 extracted from Escherichia coli BL21 (DE3) by fluorescence based analysis
Assay [7] shares this target. This is another data set of the same source.
Description: Inhibition of full-length human recombinant PTPN2 incubated for 20 mins by mobile shift assay

Chain of Protein cereblon/Tyrosine-protein phosphatase non-receptor type 2 (Q96SW2 whole entry, one chain of several): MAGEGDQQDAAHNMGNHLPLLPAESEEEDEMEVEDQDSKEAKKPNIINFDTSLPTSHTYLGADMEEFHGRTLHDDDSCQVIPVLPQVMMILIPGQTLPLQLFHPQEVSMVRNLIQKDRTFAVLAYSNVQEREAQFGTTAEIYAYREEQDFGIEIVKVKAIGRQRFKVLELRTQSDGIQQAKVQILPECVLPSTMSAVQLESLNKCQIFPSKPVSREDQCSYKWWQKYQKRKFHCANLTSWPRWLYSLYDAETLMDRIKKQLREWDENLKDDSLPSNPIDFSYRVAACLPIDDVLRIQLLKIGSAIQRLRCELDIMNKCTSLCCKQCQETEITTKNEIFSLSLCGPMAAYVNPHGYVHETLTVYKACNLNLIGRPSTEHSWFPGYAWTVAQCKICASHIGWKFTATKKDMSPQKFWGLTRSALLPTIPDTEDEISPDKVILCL
Chain of Protein cereblon/Tyrosine-protein phosphatase non-receptor type 1 (Q96SW2 whole entry, one chain of several): as above

On to `Cc1ncsc1-c1ccc(C(C)CC(=O)[C@H]2C[C@H](O)CN2C(=O)[C@@H](NC(=O)CCCCCNC(=O)n2cc(-c3ccc4cc(O)c(N5CC(=O)NS5(=O)=O)c(F)c4c3)cn2)C(C)(C)C)cc1` (some centres undefined), for which the DC50 in assay [1] is 217 nM; in assay [2], 13100 nM. In addition, in the assay listed under Homo sapiens, the Selectivity Index was above 60.

The compound `CC(C)CCNC1CNc2cc(O)c(N3CC(=O)NS3(=O)=O)c(F)c2C1` (centres undefined) came in with a half-maximal inhibitory concentration (IC50) in the assay with B16 of 1400 nM.

The compound `CC1(C)CCC[C@H](NCc2cc(O)c(N3CC(=O)NS3(=O)=O)c(F)c2)C1` registered an IC50 in the assay on B16 of 770 nM.

Regarding `O=C1CN(c2c(O)cc(NC(=O)NC3CCCCC3)cc2F)S(=O)(=O)N1`, the half-inhibitory concentration (IC50) was below 5 nM in assay [3] and below 5000 nM in the assay with B16.

In turn, `CCc1cc(C[C@H](NC(C)=O)C(=O)NCCCCOc2cccc(O)c2C(=O)OC)ccc1N(C(=O)C(=O)O)c1ccccc1C(=O)O` returned an IC50 in assay [3] of 65 nM.

Turning to `CC1(C)C[C@H](Nc2cccc(-c3sc(C(=O)O)c(OCC(=O)O)c3Cl)c2)CCN1S(=O)(=O)Cc1cccc(NC(=O)N2CCC(c3ccc4c5c(cccc35)C(=O)N4[C@@H]3CCC(=O)NC3=O)CC2)c1`, the DC50 in [1] is below 100 nM.

In the case of `CC1CCN=C(Nc2cc(O)c(N3CC(=O)NS3(=O)=O)c(F)c2)N1` (centres undefined), the values for the concentration for half-maximal inhibition (IC50) (in [3]; in the assay with B16) were 10 nM and 5000 nM, respectively.

Regarding `N#Cc1ccc2cc(Br)c(C(F)(F)P(=O)(O)O)cc2c1`, the IC50 in [3] was determined as 7.1 nM.

As for `O=C1CN(c2c(O)cc3c(c2F)C[C@H](NCCCC(F)F)CS3)S(=O)(=O)N1`, the IC50 was below 10 nM in assay [3], below 10 nM in [4] and 160 nM in the assay with B16.

`CC(C)CCN[C@@H]1CCc2cc(O)c(N3CC(=O)NS3(=O)=O)c(F)c2C1` [OSUNPROTAFIB]: the values for the IC50 (with B16; in [6]; in assay [7]) were 64 nM, 1.8 nM and 1.8 nM, respectively. In addition, the concentration giving a half-maximal response (EC50) in assay [5] was 180 nM.

Take `CCc1ccc(C(=O)NCCCC[C@H](NC(=O)[C@H](Cc2ccc(C(F)(F)P(=O)(O)O)cc2)NC(=O)[C@H](Cc2ccccc2)NC(=O)O[C@H]2C[C@@H](C)CC[C@@H]2C(C)C)C(=O)NCCOCCC(=O)Nc2cccc3c2CN(C2CCC(=O)NC2=O)C3=O)cc1` (some centres undefined): the DC50 in [1] came out at 35.8 nM. In addition, in the assay filed under Homo sapiens, the Selectivity Index is above 110.

Take `Cn1c(=O)n(C2CCC(=O)NC2=O)c2ccc(-c3ccc(CC(=O)Nc4ccc5c(F)c(N6CC(=O)NS6(=O)=O)c(O)cc5c4)cc3)cc21` (centres undefined): the 50% degradation concentration (DC50) in [1] came out at 10 nM.

Take `COc1ccc(CC(=O)N[C@@H](Cc2ccccc2)C(=O)NC(Cc2ccc(C(F)(F)P(=O)(O)O)cc2)C(=O)N[C@@H](CCCCNC(=O)c2ccc(C)c(Br)c2)C(=O)NCc2cccc(CC(=O)N[C@H](C(=O)N3C[C@H](O)CC3C(=O)N[C@@H](C)c3ccc(-c4scnc4C)cc3)C(C)(C)C)c2)cc1O` (stereo partly drawn) (X1-F[ξF2Pmp]K(Benzoyl(3-Br,4-Me))[NHCH2(1,3-C6H4)CH2CO][Tle][ξPro(4R-OH)]-X2): the results for the DC50 in [1] and in assay [2] were 7 nM and 14.8 nM, respectively. The Selectivity Index in the assay listed under Homo sapiens worked out at 2.1.

`CC(C)CCN[C@@H]1C[C@H]2C[C@@H]1c1c2cc(O)c(N2CC(=O)NS2(=O)=O)c1F` came in with an IC50 in the assay on B16 of 7820 nM.

For `CC[C@@H]1CCN(CCc2cc(O)c(N3CC(=O)NS3(=O)=O)c(F)c2)C1`, half-maximal inhibition in the assay on B16 (IC50) was put at 130 nM.

Turning to `O=C1CN(c2c(O)cc3c(c2F)C[C@H](NCCC(F)F)N3)S(=O)(=O)N1`, the IC50 in [3] amounted to 10 nM; in assay [4], 10 nM; in the assay with B16 it was 700 nM.

Consider `COc1cc(CC(=O)NC(Cc2ccccc2)C(=O)NC(Cc2ccc(C(F)(F)P(=O)(O)O)cc2)C(=O)N[C@@H](CCCCNC(=O)c2ccc(C)c(Br)c2)C(N)=O)ccc1O` (some centres undefined), for which half-maximal inhibition in assay [4] (IC50) required 120 nM.

On to `O=C1CN(c2c(O)cc3ccc(NCC4CC4)cc3c2F)S(=O)(=O)N1`, for which it took 2650 nM to reach a half-maximal effect in assay [5] (EC50). Also, the IC50 in assay [6] and in [7] was 3.9 nM each time.

Usually DC50 stands for the concentration giving 50% degradation. What is called IC50 is the concentration that gives 50% inhibition. A word on the EC50: it is the concentration needed to bring the measured effect to its halfway point.
